Data on four compounds can be found in patent publication US10280134B1, “Potent cytotoxic agent against human hepatocellular carcinoma cell line based on 2-aryl hydrazonopropanal pharmacophore” (King Abdulaziz University, priority 2018, dated 2019).

The test system of data set [1] is BJ1 (Normal Skin Fibroblast). The experiment in a line: MTT cytotoxicity assay on normal human fibroblast cell line BJ1. The note with it: for Remarks (% lethality at 100 ppm): BJ1 normal skin fibroblast, 48 hrs; for IC50 / IC90: Homo sapiens, Skin fibroblast, 48 h; for IC50: read-out: IC50: Lethal concentration of the sample which causes the death of 50% of cells in 48 hrs; for IC90: read-out: IC90: Lethal concentration of the sample which causes the death of 90% of cells in 48 hrs. In kind it is cell-based. As for the experimental part:
The activity of the test compounds on a non-cancerous, normal human fibroblast cell line, BJ1, was assessed by the mitochondrial dependent reduction of yellow MTT (3-(4,5-dimethylthiazol-2-yl)-2,5-diphenyl tetrazolium bromide) to purple formazan; Mosmann T. Rapid colorimetric assays for cellular growth and survival: Application to proliferation and cytotoxicity assays. J Immunol Methods.
All procedures were done in a sterile area using a Laminar flow cabinet biosafety class II level (Baker, SG4031NT, Sanford, Me., USA).
(§1) Cells were batch cultured for 10 days, then seeded at concentration of 10×10^3 cells/well in fresh complete growth medium in 96-well microtiter plastic plates at 37° C. for 24 h under 5% CO2 using a water jacketed Carbon dioxide incubator (Sheldon, TC2323, Cornelius, Oreg., USA). […] To stop the reaction and dissolving the formed crystals, 200 μL of 10% Sodium dodecyl sulphate (SDS) in deionized water was added to each well and incubated overnight at 37° C.
(§2) A statistical significance was tested between samples and negative control (cells with vehicle) using independent t-test by SPSS 11 program. DMSO is the vehicle used for dissolution of plant extracts and its final concentration on the cells was less than 0.2%. The percentage of change in viability was calculated according to the formula: ((Reading of extract/Reading of negative control)−1)×100.
Data Analysis of Cytotoxic Activity Test. Sample Testing Against the Normal Human Epithelial Cell Line: BJ1 (Normal Skin Fibroblast).

For data set [2], the system named is hepatocellular carcinoma cell line HEPG2. Description: MTT cytotoxicity assay on human hepatocellular carcinoma cell line HePG2. It is filed as cell-based. Conditions: for Remarks (% lethality at 100 ppm): HEPG2, at 100 ppm; for Remarks (% lethality at 100 ppm) / IC50 / IC90: 48 hrs; for IC50 / IC90: HEPG2, MTT, 100 to 0.78 μg/ml; for IC50: read-out: IC50: Lethal concentration of the sample which causes the death of 50% of cells in 48 hrs; for IC90: read-out: IC90: Lethal concentration of the sample which causes the death of 90% of cells in 48 hrs. The protocol: Cell viability was assessed by the mitochondrial dependent reduction of yellow MTT (3-(4,5-dimethylthiazol-2-yl)-2,5-diphenyl tetrazolium bromide) to purple formazan; Mossman, et al., id.
All procedures were done in a sterile area using a Laminar flow cabinet biosafety class II level (Baker, SG403INT, Sanford, Me., USA).
as §1, §2
Samples Tested Against the Human Tumor Cell Line(s): HePG 2 a Human Hepatocellular Carcinoma Cell Line.
Background: Formazan colour is commonly taken as a measure of viable cells.

pIC50: −log10 of the molar value. ≈ marks a conversion by molar mass, not a printed value. Read-outs that look alike come from different tables or passages of the source.

Regarding `COC(=O)c1ccccc1N/N=C(\C=O)C(=O)c1ccccc1` [Compound 1], the “Remarks (% lethality at 100 ppm)” value in data set [1] was 41.5% at 100 ppm. The “safety on normal human cell line (in words)” value in data set [1] (normal human epithelial cell line (BJ1)) is “substantially safe”. Besides, the “Remarks (% lethality at 100 ppm)” value in data set [2] is given as 95.3% at 100 ppm. In data set [2] (Homo sapiens), the IC50 turned out to be 45.5 µg/mL and the IC90 stood at 77.3 µg/mL (≈ 249 µM).
With `COC(=O)c1ccccc1N/N=C(\C=O)C(C)=O` [Compound 2], in data set [1], the “Remarks (% lethality at 100 ppm)” value came out at 100% at 100 ppm, the IC50 was found to be 16.9 µg/mL (≈ 68.1 µM) and the IC90 turned out to be 29.1 µg/mL (≈ 117 µM). In data set [2], the “Remarks (% lethality at 100 ppm)” value is on record as 100% at 100 ppm. In addition, in data set [2] (Homo sapiens), the IC50 was found to be 15.7 µg/mL and the IC90 is 28.3 µg/mL (≈ 114 µM).
With `COC(=O)c1ccccc1N/N=C(\C=O)C(=O)c1cccs1` [Compound 3], in data set [1], the “Remarks (% lethality at 100 ppm)” value amounted to 80% at 100 ppm, the IC50 is 61 µg/mL (≈ 193 µM) and the IC90 came to 105 µg/mL (≈ 332 µM). Besides, the “Remarks (% lethality at 100 ppm)” value in data set [2] is listed as 100% at 100 ppm. Further, in data set [2] (Homo sapiens), the IC50 is 14.7 µg/mL and the IC90 was found to be 26 µg/mL (≈ 82.2 µM).
By pIC50 is commonly meant −log10 of the IC50, conventionally taken in molar units. Consider `COc1cccc2c1C(=O)c1c(O)c3c(c(O)c1C2=O)C[C@@](O)(C(=O)CO)C[C@@H]3O[C@H]1C[C@H](N)[C@H](O)[C@H](C)O1` [Doxorubicin, doxorubicin, reference compound], for which the pIC50 in data set [2] (Homo sapiens, HEPG2, positive control, Table 3, Mw = 579.99, read-out: IC50 (positive control)) is 4.42.
